According to patent US7223755B2, “Hydroxymorpholinone derivative and medicinal use thereof” (Senju Pharmaceutical Co., Ltd., priority 2002, dated 2007):

Tests used:
[1] = test system: T1, μ-calpain (derived from human erythrocyte); assay: μ-calpain inhibitory activity (casein substrate, Coomassie brilliant blue); type: biochemical; details: 0.5 mg/mL casein, 30° C. for 60 min; read-out: 50% enzyme inhibitory concentration [IC50 (μM)] μ-calpain
T1 construct: μ-calpain (derived from human erythrocyte, manufactured by Cosmo Bio Co., Ltd.); purchased Cosmo Bio Co., Ltd; host or cells: human erythrocyte (natural source)
Procedure: The μ-calpain and m-calpain inhibitory activities were determined according to the method described in a reference [Anal. Biochem. vol. 208, 387-392 (1993)]. To be specific, a reaction mixture (200 μL) containing 0.5 mg/mL casein, 50 mM Tris-HCl buffer (pH 7.4), 20 mM dithiothreitol and 0.03 enzyme unit of μ-calpain (derived from human erythrocyte, manufactured by Cosmo Bio Co., Ltd.) or m-calpain (derived from pig kidney, manufactured by Cosmo Bio Co., Ltd.), dimethyl sulfoxide solution (2.5 μL) containing various concentrations of a test drug and 20 mM aqueous calcium chloride solution (50 μL) were added to a 96 well plate. After reaction at 30° C. for 60 min, the reaction mixture (100 μL) was transferred to a different 96 well plate, and purified water (50 μL) and 50% Coomassie brilliant blue solution (100 μL) were added. The plate was left standing at room temperature for 15 min and absorbance at 595 nm was measured. Using a value, measured after treating in the same manner without a test drug, as a control and a value, obtained by adding 1 mM EDTA instead of 20 mM aqueous calcium chloride solution, as a blank value, an inhibitory rate was calculated from the following formula and the amount (IC50) necessary for 50% inhibition was determined. Inhibitory rate (%)={1−(measured value−blank value)/(control value−blank value)}×100 Test Results 1

Compound | IC50 [1] | melting point
CC(C)C[C@@H]1OC(O)[C@H](CCc2ccccc2)NC1=O (stereo partly drawn) [Compound 2, (2S,5S)-6-hydroxy-2-(2-methylpropyl)-5-(2-phenylethyl)-3-morpholinone] | 0.51 µM | 94.1 to 95.8 °C
O=C1N[C@@H](Cc2ccccc2)C(O)O[C@H]1Cc1ccccc1 (stereo partly drawn) [Compound 7, (2S,5S)-2,5-dibenzyl-6-hydroxy-3-morpholinone] | 17 µM | 165.5 to 166 °C
CC(C)C[C@@H]1OC(O)[C@H](Cc2ccc3ccccc3c2)NC1=O (stereo partly drawn) [Compound 3, (2S,5S)-6-hydroxy-2-(2-methylpropyl)-5-(2-naphthylmethyl)-3-morpholinone] | 0.49 µM | 86.5 to 88.5 °C
CC(C)C[C@@H]1OC(O)[C@H](Cc2ccccc2F)NC1=O (stereo partly drawn) [Compound 12, (2S,5S)-5-((2-fluorophenyl)methyl)-6-hydroxy-2-(2-methylpropyl)-3-morpholinone] | 2.1 µM | 83.9 to 87.9 °C
CC(C)C[C@@H]1OC(O)[C@H](Cc2ccc(O)cc2)NC1=O (stereo partly drawn) [Compound 8, (2S,5S)-6-hydroxy-5-((4-hydroxyphenyl)methyl)-2-(2-methylpropyl)-3-morpholinone] | 2.5 µM | –
CC(C)C[C@@H]1OC(O)[C@H](COCc2ccccc2)NC1=O (stereo partly drawn) [Compound 14, (2S,5S)-5-benzyloxymethyl-6-hydroxy-2-(2-methylpropyl)-3-morpholinone] | 0.82 µM | –
CC(C)[C@@H]1OC(O)[C@H](CCc2ccccc2)NC1=O (stereo partly drawn) [Compound 6, (2S,5S)-6-hydroxy-2-(1-methylethyl)-5-(2-phenylethyl)-3-morpholinone] | 3.5 µM | –
CC(C)C[C@@H]1OC(O)[C@H](Cc2ccccc2)NC1=O (stereo partly drawn) [Compound 1, (2S,5S)-5-benzyl-6-hydroxy-2-(2-methylpropyl)-3-morpholinone] | 0.7 µM | –
CCCCOc1ccc(C[C@@H]2NC(=O)[C@H](CC(C)C)OC2O)cc1 (stereo partly drawn) [Compound 10, (2S,5S)-5-((4-butoxyphenyl)methyl)-6-hydroxy-2-(2-methylpropyl)-3-morpholinone] | 0.52 µM | –
COc1ccc(C[C@@H]2NC(=O)[C@H](CC(C)C)OC2O)cc1 (stereo partly drawn) [Compound 9, (2S,5S)-6-hydroxy-5-((4-methoxyphenyl)methyl)-2-(2-methylpropyl)-3-morpholinone] | 0.68 µM | –
CC(C)C[C@@H]1OC(O)[C@H](CCCCNC(=O)c2ccccc2)NC1=O (stereo partly drawn) [Compound 16, (2S,5S)-5-(4-(benzoylamino)butyl)-6-hydroxy-2-(2-methylpropyl)-3-morpholinone] | 1.1 µM | 128.4 to 129 °C
CC(C)C[C@@H]1OC(O)[C@@H](Cc2ccccc2)NC1=O (stereo partly drawn) [Compound 4, (2S,5R)-5-benzyl-6-hydroxy-2-(2-methylpropyl)-3-morpholinone] | 5.9 µM | 130.9 to 131.8 °C
CC(C)C[C@@H]1OC(O)[C@H](Cc2ccc(OCC3CCCCC3)cc2)NC1=O (stereo partly drawn) [Compound 11, (2S,5S)-5-((4-(cyclohexylmethoxy)phenyl)methyl)-6-hydroxy-2-(2-methylpropyl)-3-morpholinone] | 0.45 µM | –
CC(C)[C@@H]1OC(O)[C@H](Cc2ccccc2)NC1=O (stereo partly drawn) [Compound 5, (2S,5S)-5-benzyl-6-hydroxy-2-(1-methylethyl)-3-morpholinone] | 2.3 µM | –
(2S,5S)-5-((4-biphenyl)methyl)-6-hydroxy-2-(2-methylpropyl)-3-morpholinone [Compound 15] | 0.25 µM | –
CC(C)C[C@@H]1OC(O)[C@H](Cc2ccccc2Cl)NC1=O (stereo partly drawn) [Compound 13, (2S,5S)-5-((2-chlorophenyl)methyl)-6-hydroxy-2-(2-methylpropyl)-3-morpholinone] | 0.93 µM | –
